# Test results: PubChem BioAssay (NCI)
#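 GI50 is the concentration that inhibits growth by half. TGI: concentration producing complete growth inhibition.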
# Tests used:
# Assay in all cases: DTP human tumour cell line panel, 384-well format
# 786-0 renal = tested on: 786-0 renal
# A498 renal = tested on: A498 renal
# A549 NSCLC = tested on: A549 NSCLC
# ACHN renal = tested on: ACHN renal
# BT-549 breast = tested on: BT-549 breast
# CAKI-1 renal = tested on: CAKI-1 renal
# CCRF-CEM leukemia = tested on: CCRF-CEM leukemia
# DU-145 prostate = tested on: DU-145 prostate
# EKVX NSCLC = tested on: EKVX NSCLC
# HCC-2998 colon = tested on: HCC-2998 colon
# HCT-116 colon = tested on: HCT-116 colon
# HOP-92 NSCLC = tested on: HOP-92 NSCLC
# HT29 colon = tested on: HT29 colon
# IGROV1 ovarian = tested on: IGROV1 ovarian
# K-562 leukemia = tested on: K-562 leukemia
# KM12 colon = tested on: KM12 colon
# LOX IMVI melanoma = tested on: LOX IMVI melanoma
# M14 melanoma = tested on: M14 melanoma
# MALME-3M melanoma = tested on: MALME-3M melanoma
# MCF7 breast = tested on: MCF7 breast
# MDA-MB-468 breast = tested on: MDA-MB-468 breast
# MOLT-4 leukemia = tested on: MOLT-4 leukemia
# NCI-H226 lung = tested on: NCI-H226 lung
# NCI-H23 lung = tested on: NCI-H23 lung
# NCI-H322M lung = tested on: NCI-H322M lung
# NCI-H460 NSCLC = tested on: NCI-H460 NSCLC
# NCI-H522 lung = tested on: NCI-H522 lung
# OVCAR-4 ovarian = tested on: OVCAR-4 ovarian
# OVCAR-8 ovarian = tested on: OVCAR-8 ovarian
# PC-3 prostate = tested on: PC-3 prostate
# RPMI-8226 leukemia = tested on: RPMI-8226 leukemia
# RXF 393 renal = tested on: RXF 393 renal
# SF-268 CNS = tested on: SF-268 CNS
# SF-295 CNS = tested on: SF-295 CNS
# SF-539 CNS = tested on: SF-539 CNS
# SK-MEL-2 melanoma = tested on: SK-MEL-2 melanoma
# SK-MEL-28 melanoma = tested on: SK-MEL-28 melanoma
# SK-MEL-5 melanoma = tested on: SK-MEL-5 melanoma
# SK-OV-3 ovarian = tested on: SK-OV-3 ovarian
# SN12C renal = tested on: SN12C renal
# SNB-19 CNS = tested on: SNB-19 CNS
# SNB-75 CNS = tested on: SNB-75 CNS
# SW-620 colon = tested on: SW-620 colon
# TK-10 renal = tested on: TK-10 renal
# U251 glioblastoma = tested on: U251 glioblastoma
# UACC-257 melanoma = tested on: UACC-257 melanoma
# UACC-62 melanoma = tested on: UACC-62 melanoma
smiles,measurement,setting,value
Cn1cc(-c2ccc(-c3cncc(Cl)c3N3CCC4(CCNC4=O)CC3)cc2)cn1,GI50,786-0 renal,11.8 µM
same,TGI,786-0 renal,> 92.2 µM
same,GI50,A498 renal,4.45 µM
same,TGI,A498 renal,33.1 µM
same,GI50,A549 NSCLC,24.5 µM
same,TGI,A549 NSCLC,98 µM
same,GI50,ACHN renal,15.4 µM
same,TGI,ACHN renal,81.9 µM
same,GI50,BT-549 breast,19.9 µM
same,TGI,BT-549 breast,58.5 µM
same,GI50,CAKI-1 renal,22.5 µM
same,TGI,CAKI-1 renal,> 100 µM
same,GI50,CCRF-CEM leukemia,8.63 µM
same,TGI,CCRF-CEM leukemia,23.9 µM
same,GI50,DU-145 prostate,11 µM
same,TGI,DU-145 prostate,62.2 µM
same,GI50,EKVX NSCLC,20.8 µM
same,TGI,EKVX NSCLC,78.8 µM
same,GI50,HCC-2998 colon,15.5 µM
same,TGI,HCC-2998 colon,47.9 µM
same,GI50,HCT-116 colon,13.8 µM
same,TGI,HCT-116 colon,47.3 µM
same,GI50,HOP-92 NSCLC,40.6 µM
same,TGI,HOP-92 NSCLC,> 100 µM
same,GI50,HT29 colon,9.55 µM
same,TGI,HT29 colon,> 93.3 µM
same,GI50,IGROV1 ovarian,25.2 µM
same,TGI,IGROV1 ovarian,> 100 µM
same,GI50,K-562 leukemia,19 µM
same,TGI,K-562 leukemia,> 100 µM
same,GI50,KM12 colon,21.3 µM
same,TGI,KM12 colon,> 94.3 µM
same,GI50,LOX IMVI melanoma,29.5 µM
same,TGI,LOX IMVI melanoma,> 75.1 µM
same,GI50,M14 melanoma,39.4 µM
same,TGI,M14 melanoma,> 100 µM
same,GI50,MALME-3M melanoma,30.3 µM
same,TGI,MALME-3M melanoma,> 100 µM
same,GI50,MCF7 breast,15.9 µM
same,TGI,MCF7 breast,52.8 µM
same,GI50,MDA-MB-468 breast,3.15 µM
same,TGI,MDA-MB-468 breast,18.4 µM
same,GI50,MOLT-4 leukemia,6.92 µM
same,TGI,MOLT-4 leukemia,24.2 µM
same,GI50,NCI-H226 lung,18.6 µM
same,TGI,NCI-H226 lung,59.8 µM
same,GI50,NCI-H23 lung,22.5 µM
same,TGI,NCI-H23 lung,59 µM
same,GI50,NCI-H322M lung,22.3 µM
same,TGI,NCI-H322M lung,> 95.3 µM
same,GI50,NCI-H460 NSCLC,21.1 µM
same,TGI,NCI-H460 NSCLC,62.2 µM
same,GI50,NCI-H522 lung,13.1 µM
same,TGI,NCI-H522 lung,48.2 µM
same,GI50,OVCAR-4 ovarian,39.6 µM
same,TGI,OVCAR-4 ovarian,> 90 µM
same,GI50,OVCAR-8 ovarian,25.1 µM
same,TGI,OVCAR-8 ovarian,> 100 µM
same,GI50,PC-3 prostate,26.3 µM
same,TGI,PC-3 prostate,> 100 µM
same,GI50,RPMI-8226 leukemia,1.17 µM
same,TGI,RPMI-8226 leukemia,18.4 µM
same,GI50,RXF 393 renal,14.7 µM
same,TGI,RXF 393 renal,> 96.1 µM
same,GI50,SF-268 CNS,45.8 µM
same,TGI,SF-268 CNS,> 100 µM
same,GI50,SF-295 CNS,25.2 µM
same,TGI,SF-295 CNS,> 87.2 µM
same,GI50,SF-539 CNS,41.4 µM
same,TGI,SF-539 CNS,> 100 µM
same,GI50,SK-MEL-2 melanoma,16.9 µM
same,TGI,SK-MEL-2 melanoma,39.2 µM
same,GI50,SK-MEL-28 melanoma,20 µM
same,TGI,SK-MEL-28 melanoma,> 65.3 µM
same,GI50,SK-MEL-5 melanoma,15.6 µM
same,TGI,SK-MEL-5 melanoma,33.5 µM
same,GI50,SK-OV-3 ovarian,34 µM
same,TGI,SK-OV-3 ovarian,> 100 µM
same,GI50,SN12C renal,45.2 µM
same,TGI,SN12C renal,> 100 µM
same,GI50,SNB-19 CNS,47.4 µM
same,TGI,SNB-19 CNS,> 100 µM
same,GI50,SNB-75 CNS,40 µM
same,TGI,SNB-75 CNS,> 95.9 µM
same,GI50,SW-620 colon,12.3 µM
same,TGI,SW-620 colon,> 86.5 µM
same,GI50,TK-10 renal,11.2 µM
same,TGI,TK-10 renal,99.9 µM
same,GI50,U251 glioblastoma,30.4 µM
same,TGI,U251 glioblastoma,> 80.1 µM
same,GI50,UACC-257 melanoma,35.6 µM
same,TGI,UACC-257 melanoma,> 71.3 µM
same,GI50,UACC-62 melanoma,20.1 µM
same,TGI,UACC-62 melanoma,58.1 µM
